“And” between values parts separate entries of the source, which are not always exact repeats. Equal entries are not always repeated. Each block holds one compound with its values, some of them ahead of it.
Test system: A498 complex spheroid viability
Assay: Anticancer human tumor A498 cell line growth inhibition;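 further: spheroids exposed to agents for seven days before readout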;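 on viability, T/C: 100% = DMSO vehicle-treated spheroids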
Conditions: for viability, T/C: stronger effect = lower value
Procedure, shortened: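 Drug combinations with the LSD1 inhibitor iadademstat tested on tumor cells co-cultured as spheroids with endothelial cells and mesenchymal stem cells. Concentrations descended in half-log increments from clinical Cmax or 10 microM.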

[1] = curve of first compound, second compound 0.1 µM
[2] = curve of first compound, second compound 0.316 µM
[3] = curve of first compound, second compound 1 µM
[4] = curve of first compound, second compound 3.16 µM
[5] = curve of first compound, second compound 10 µM
[6] = second compound 0.1 µM, first compound 0.00949 µM
[7] = second compound 0.1 µM, first compound 0.03 µM
[8] = second compound 0.1 µM, first compound 0.0949 µM
[9] = second compound 0.1 µM, first compound 0.3 µM
[10] = second compound 0.1 µM, first compound 0.949 µM
[11] = second compound 0.1 µM, first compound 3 µM
[12] = second compound 0.316 µM, first compound 0.00949 µM
[13] = second compound 0.316 µM, first compound 0.03 µM
[14] = second compound 0.316 µM, first compound 0.0949 µM
[15] = second compound 0.316 µM, first compound 0.3 µM
[16] = second compound 0.316 µM, first compound 0.949 µM
[17] = second compound 0.316 µM, first compound 3 µM
[18] = second compound 1 µM, first compound 0.00949 µM
[19] = second compound 1 µM, first compound 0.03 µM
[20] = second compound 1 µM, first compound 0.0949 µM
[21] = second compound 1 µM, first compound 0.3 µM
[22] = second compound 1 µM, first compound 0.949 µM
[23] = second compound 1 µM, first compound 3 µM
[24] = second compound 3.16 µM, first compound 0.00949 µM
[25] = second compound 3.16 µM, first compound 0.03 µM
[26] = second compound 3.16 µM, first compound 0.0949 µM
[27] = second compound 3.16 µM, first compound 0.3 µM
[28] = second compound 3.16 µM, first compound 0.949 µM
[29] = second compound 3.16 µM, first compound 3 µM
[30] = second compound 10 µM, first compound 0.00949 µM
[31] = second compound 10 µM, first compound 0.03 µM
[32] = second compound 10 µM, first compound 0.0949 µM
[33] = second compound 10 µM, first compound 0.3 µM
[34] = second compound 10 µM, first compound 0.949 µM
[35] = second compound 10 µM, first compound 3 µM

Structure (SMILES): COc1cc(C2c3cc4c(cc3C(OC3OC5COC(C)OC5C(O)C3O)C3COC(=O)C23)OCO4)cc(OC)c1O (configuration not stated) + NC1CCC(NC2CC2c2ccccc2)CC1
IC50 [1]: > 3000 nM
IC50 [2]: > 3000 nM
IC50 [3]: > 3000 nM
IC50 [4]: 2330 nM
IC50 [5]: 1420 nM
viability, T/C [6]: 81.8%
viability, T/C [7]: 67.1%
viability, T/C [8]: 59.9%
viability, T/C [9]: 58.5%
viability, T/C [10]: 55.7%
viability, T/C [11]: 54.5%
viability, T/C [12]: 79.4%
viability, T/C [13]: 71.2%
viability, T/C [14]: 70.3%
viability, T/C [15]: 67.5%
viability, T/C [16]: 59.6%
viability, T/C [17]: 57.5%
viability, T/C [18]: 82%
viability, T/C [19]: 69.3%
viability, T/C [20]: 68.6%
viability, T/C [21]: 62.9%
viability, T/C [22]: 57.6%
viability, T/C [23]: 57.2%
viability, T/C [24]: 72.5%
viability, T/C [25]: 69.6%
viability, T/C [26]: 63.5%
viability, T/C [27]: 60.7%
viability, T/C [28]: 52.5%
viability, T/C [29]: 49.2%
viability, T/C [30]: 64.3%
viability, T/C [31]: 66.8%
viability, T/C [32]: 61.5%
viability, T/C [33]: 63.4%
viability, T/C [34]: 48.8%
viability, T/C [35]: 45.3%

IC50 (curve of compound): > 3000 nM
Structure (SMILES): CCN(c1cc(-c2ccc(CN3CCOCC3)cc2)cc(C(=O)NCc2c(C)cc(C)[nH]c2=O)c1C)C1CCOCC1
viability, T/C (compound 0.00949 µM): 98.7% and 101%
viability, T/C (compound 0.03 µM): 108% and 107%
viability, T/C (compound 0.0949 µM): 98.7% and 102%
viability, T/C (compound 0.3 µM): 103%
viability, T/C (compound 0.949 µM): 107% and 105%
viability, T/C (compound 3 µM): 112% and 113%

Structure (SMILES): O=C(C=Cc1cccc(S(=O)(=O)Nc2ccccc2)c1)NO + NC1CC1c1ccc(-c2cccc(O)c2)cc1
IC50 [1]: 352 nM
IC50 [2]: 398 nM
IC50 [3]: 325 nM
IC50 [4]: 364 nM
IC50 [5]: 343 nM
viability, T/C [6]: 105%
viability, T/C [7]: 90.2%
viability, T/C [8]: 78.6%
viability, T/C [9]: 49%
viability, T/C [10]: 32.4%
viability, T/C [11]: 7.4%
viability, T/C [12]: 105%
viability, T/C [13]: 93.2%
viability, T/C [14]: 76.9%
viability, T/C [15]: 53.3%
viability, T/C [16]: 34.3%
viability, T/C [17]: 7.34%
viability, T/C [18]: 98.4%
viability, T/C [19]: 88.3%
viability, T/C [20]: 76.8%
viability, T/C [21]: 49.3%
viability, T/C [22]: 28.4%
viability, T/C [23]: 6.7%
viability, T/C [24]: 93.9%
viability, T/C [25]: 84.4%
viability, T/C [26]: 66.6%
viability, T/C [27]: 52.2%
viability, T/C [28]: 37.6%
viability, T/C [29]: 5.52%
viability, T/C [30]: 93.2%
viability, T/C [31]: 81.3%
viability, T/C [32]: 66.7%
viability, T/C [33]: 55.5%
viability, T/C [34]: 30.7%
viability, T/C [35]: 5.21%
